Results: US12048686B2, “Compositions and methods for activating NRF2-dependent gene expression” (The University of Chicago, priority 2018, dated 2024)

What was measured:
PGK1 = target: T1, PGK1 (Homo sapiens, UniProt P00558); assay: Dye-based thermal denaturation assay; assay type: binding; details: recombinant PGK1, compound 20 μM
T1 sequence (P00558 1-417): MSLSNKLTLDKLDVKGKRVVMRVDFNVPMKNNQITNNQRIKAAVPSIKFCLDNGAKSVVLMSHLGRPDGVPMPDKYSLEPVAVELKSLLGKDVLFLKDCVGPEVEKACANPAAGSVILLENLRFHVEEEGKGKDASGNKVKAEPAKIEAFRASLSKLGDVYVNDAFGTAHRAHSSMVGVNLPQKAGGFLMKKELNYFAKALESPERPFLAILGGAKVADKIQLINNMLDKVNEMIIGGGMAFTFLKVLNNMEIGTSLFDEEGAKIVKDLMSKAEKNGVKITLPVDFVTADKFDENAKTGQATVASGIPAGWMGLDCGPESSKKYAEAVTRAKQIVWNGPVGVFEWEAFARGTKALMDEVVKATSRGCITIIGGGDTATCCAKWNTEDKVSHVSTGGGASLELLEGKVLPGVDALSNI
Procedure: FIG. 5A-E. A photoactivatable affinity probe-based approach identifies PGK1 as the relevant cellular target of CBR-470-1. (a) Silver staining and anti-biotin Western blots of ammonium sulfate fractionated lysates from UV-irradiated IMR32 cells treated with 5 μM for 1 hour with or without CBR-470-1 competition (250 μM) (n=3). Shown on the right are initial proteomic target results from gel-band digestion and LC-MS/MS analysis. (b) Dye-based thermal denaturation assay with recombinant PGK1 in the presence CBR-470-1 (20 μM) or vehicle alone (n=3). Calculated Tm values are listed. (c, d) Dose-dependent thermal stability assay of recombinant PGK1 and GAPDH in the presence of increasing doses of CBR-470-1 near the Tm of both proteins (57° C.) (c) (n=5) or room temperature (d) (n=3). Western blot of sample supernatants after centrifugation (13,000 rpm) detected total PGK1 and GAPDH protein, which were plotted in Prism (below). (e) ARE-LUC reporter activity in HEK293T cells with transient shRNA.
Dye-based thermal denaturation assay. Thermal denaturation experiments were performed using a Protein Thermal Shift Dye Kit (ThermoFisher, 4461146). […] Fluorescence values were recorded using a Viia7 Real-Time PCR instrument according to supplied instructions.

[1] = tested on: NRF2 target genes NQO1 and HMOX1; assay: Quantitative RT-PCR of NRF2 target genes in IMR32 cells; assay type: cell-based; details: MGx 1 mM
Procedure: FIG. 2A-F. Methylglyoxal modifies KEAP1 to form a covalent, high molecular weight dimer and activate NRF2 signaling. (a) Time-course, anti-FLAG Western blot analysis of whole cell lysates from HEK293T cells expressing FLAG-KEAP1 treated with DMSO or CBR-470-1. (b) Western blot monitoring of FLAG-KEAP1 migration in HEK293 T lysates after incubation with central glycolytic metabolites in vitro (1 and 5 mM, left and right for each metabolite). (c) FLAG-KEAP1 (red) and β-actin (green) from HEK293T cells treated with MGx (5 mM) for 8 hr. (d) Relative NQO1 and HMOX1 mRNA levels in IMR32 cells treated with MGx (1 mM) or water control (n=3). (e) LC-MS/MS quantitation of cellular MGx levels in IMR32 cells treated with CBR-470-1 relative to DMSO (n=4). (f) ARE-LUC reporter activity in HEK293T cells with transient shRNA knockdown of GLO1 (n=8). Univariate two-sided t-test (d, f); data are mean±SEM of biologically independent samples.
Quantitative RT-PCR. Cells were collected by trypsinization and subsequent centrifugation at 500 g. […] Quantitative RT-PCR reactions were measured on a Viia 7 Real-Time PCR system (Thermo) using a Clontech SYBR green-based master mix. Reactions were normalized to TUBG1 levels for each biological replicate and relative transcript abundance calculated using the comparative Ct method.

Compound	shift in PGK1 thermal stability (PGK1)	expression of NRF2 target genes NQO1 and HMOX1 [1]
CC(C)CN[C@H]1CS(=O)(=O)C[C@@H]1S(=O)(=O)c1ccc(Cl)cc1 [CBR-470-1]	consistent shift in PGK1 stability	–
CC(=O)C=O [MGx, methylglyoxal, reference compound]	–	functionally activated expression of the downstream NRF2 target genes NQO1 and HMOX1
